These results are taken from patent US20200071327A1, “Prodrugs for the Treatment of Disease” (Oppilan Pharma Ltd., priority 2017, published 2020).

Bounds are passed on as bounds.

The target in this assay is T1, full-length human S1P1 (Homo sapiens, UniProt P21453).
T1 construct: CHO-K1 Gαqi5 cells expression full-length human S1P1; expressed in transfected cells; host or cells: CHO-K1 Gαqi5 cells (membrane preparation)
Kind of assay: GTPγS binding assay (scintillation proximity assay) on S1P1 membranes. In kind it is biochemical. The following applies: membranes from CHO-K1 Gαqi5 cells expressing full-length human S1P1; GTPγ35S; 60 minutes incubation. As to the method:
S1P1 membrane is prepared from CHO-K1 Gαqi5 cells expression full-length human S1P1. Scintillation proximity assay (SPA) is performed by incubating membranes, GTPγ^35S, and compound 11 at various concentrations for 60 minutes. Wheat germ agglutinin-coated SPA beads are added and incubated for 60 minutes before centrifugation and scintillation counting.

T1 sequence (P21453 whole entry): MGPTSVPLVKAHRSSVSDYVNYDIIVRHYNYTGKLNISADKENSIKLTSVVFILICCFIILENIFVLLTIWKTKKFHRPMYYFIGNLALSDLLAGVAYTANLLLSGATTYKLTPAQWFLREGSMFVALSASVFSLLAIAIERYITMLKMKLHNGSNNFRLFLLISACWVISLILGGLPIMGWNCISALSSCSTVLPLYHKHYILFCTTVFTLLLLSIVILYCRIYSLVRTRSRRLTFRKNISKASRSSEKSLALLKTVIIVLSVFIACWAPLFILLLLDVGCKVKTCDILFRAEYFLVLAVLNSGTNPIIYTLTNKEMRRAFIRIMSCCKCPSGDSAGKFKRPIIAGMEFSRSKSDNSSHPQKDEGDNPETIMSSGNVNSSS

`O=C1CC[C@@H](Oc2cc(Cl)c(-c3noc(-c4cn5cc(C(F)(F)F)cc(Cl)c5n4)n3)cc2Cl)CN1` [compound 11, (R)-5-(2,5-diehloro-4-(5-(8-chloro-6-(trifluoromethyl)imidazo[1,2-a]pyridin-2-yl)-1,2,4-oxadiazol-3-yl)phenoxy)piperidin-2-one] returned an EC50 of less than 1000 nM.
